US8466160B2, “Identification of non-small cell lung carcinoma (NSCLC) tumors expressing PDGFR-alpha” (priority 2005, dated 2013)
Structures can show the parent of a compound that is named as a salt.

Key:
[1] = test system: ERK phosphorylation; assay: Western blot of ERK phosphorylation in H1703 cells; format: cell-based, human; conditions: FIG. 9(a)
Procedure: (§1) Phosphorylation of the EGFR receptor, ERK and AKT were determined while total PDGFRα and ERK1/2 are included as loading controls. […] AKT is thought to be the primary driver of cell survival (see Franke, Cell 88: 435-437 (1997)).

[2] = test system: A549 cell line; conditions: Mol. Cancer 2003, not reproduced by the inventors; cited from earlier work
[3] = test system: A549 cell line; assay: MTT cell proliferation assay, A549; format: cell-based, human
[4] = test system: H1703 cell line; assay: MTT cell proliferation assay, H1703; format: cell-based, human; conditions: concentrations similar to K562 (0.1 μM)
[5] = test system: AKT phosphorylation; assay: IHC of AKT phosphorylation in xenograft tumors; format: in vivo, mice; conditions: treated vs control tumors, FIG. 11
Procedure: (§2) In this model, human cell lines are injected into immune-compromised mice forming xenograft tumors that resemble human tumors including vascularization and other features found in human tumors. The mice are then administered the drug in the same manner as in human patients. Tumor size may be monitored visually during drug treatment and the tumors may be removed, fixed and analyzed by standard IHC procedures or lysed and analyzed by Western blot.

[6] = test system: H1373 cell line; assay: MTT cell proliferation assay, H1373; format: cell-based, human
[7] = test system: K562 cell line; assay: MTT cell proliferation assay, K562; format: cell-based
[8] = test system: PDGFRα phosphorylation; assay: Western blot of PDGFRα phosphorylation in H1703 cells; format: cell-based, human; conditions: dose response, FIG. 9(b)
[9] = test system: PDGFRα-expressing human NSCLC tumors (H1703) xenografts; assay: Tumor size in mouse xenografts of PDGFRα-expressing human NSCLC tumors; format: in vivo, mice
Procedure: This hypothesis was tested using mouse xenografts derived from the H1703 cell line.
as §2

[10] = test system: AKT phosphorylation; assay: Western blot of AKT phosphorylation in H1703 cells; format: cell-based, human
Procedure: as §1

[11] = test system: PDGFRα phosphorylation; assay: Western blot / IHC of PDGFRα phosphorylation in xenograft tumors; format: in vivo, mice
Procedure: as §2

COc1cc2ncnc(Nc3ccc(F)c(Cl)c3)c2cc1OCCCN1CCOCC1 [Iressa™]
effect on ERK phosphorylation [1]: decreases

Cc1ccc(NC(=O)c2ccc(CN3CCN(C)CC3)cc2)cc1Nc1nccc(-c2cccnc2)n1 [Gleevec®, Imatinib mesylate]
growth of A549 cell line as reported by Zhang et al. [2]: growth inhibition
concentration up to which cell growth was not affected (MTT) [3]: > 10 µM
sensitivity of cell growth to Gleevec (MTT) [4]: sensitive
effect on AKT phosphorylation in xenograft tumors (IHC) [5]: decrease
sensitivity of cell growth to Gleevec (MTT) [6]: insensitive
concentration at which cell line is sensitive (MTT) [7]: 0.1 µM
lowest dose that inhibits PDGFRα phosphorylation [8]: 0.01 µM
average tumor diameter in treated mice ([9]; 3 treated mice, control approximately 190 mm): approximately 20 mm
effect on tumor size ([9]; xenograft, FIG. 10(a)): significant decrease in tumor size
effect on AKT phosphorylation ([10]; Western blot, FIG. 9(a)): loss of AKT phosphorylation
dose that greatly inhibits AKT phosphorylation ([10]; dose response, FIG. 9(b)): 0.1 µM
effect on PDGFRα phosphorylation in xenograft tumors (IHC) ([11]; treated vs control tumors, FIG. 11): decrease
effect on PDGFRα phosphorylation in xenografts (Western blot) ([11]; tumor lysate, 4 treated mice vs one control): inhibiting PDGFRα phosphorylation
